Measured values from article PMC10213797 (Acta Pharmaceutica Sinica. B, 2023).

What was measured:
BBB-PAMPA permeability = conditions: PAMPA, pH 7.4, BBB–PAMPA permeability Papp (mean ± SD), pH 7.4, 4 h, 25 °C, brain sink buffer
[1] = Metal chelation, UV–Vis spectra and Cu2+ titration; format: physicochemical; conditions: 30 μmol/L QN, equimolar metal ion, HEPES pH 7.4
HepG2 cells = experiment: Metabolic activity, MTS assay, HepG2; format: cell-based; conditions: HepG2, 24 h, 1–100 μmol/L
[2] = tested on: APPSwe/PS1δE9 double transgenic mice; experiment: Aβ plaque load after chronic treatment, Thioflavin S staining; conditions: male and female mice at 10 months of age, 0.62 mg/kg/day, 4-month treatment
hBChE [3] = target: T1, hBChE (Homo sapiens, UniProt P06276); experiment: hBChE inhibition, Ellman's method; format: biochemical; conditions: hBChE IC50, abstract
hBChE [4] = target: T1, hBChE; experiment: hBChE inhibition kinetics, progress curves of BTCI hydrolysis; format: biochemical; conditions: 50 μmol/L BTCI, 25 °C, pH 7.0
[5] = DPPH radical-scavenging assay; conditions: read-out: Radical-scavenging DPPH assay EC50; means ± SEM (n = 2, in triplicates)
Aβ1–42 = Aβ1–42 (Homo sapiens, UniProt P05067); experiment: Aβ1–42 aggregation inhibition, ThT fluorescence assay; format: biochemical
LPS-activated BV2 cells [6] = experiment: Nitrite quantification, Griess assay, LPS-stimulated BV2; format: cell-based; conditions: BV2, LPS 1 μg/mL, 19 at 5 μmol/L
LPS-activated BV2 cells [7] = experiment: Neuroprotection in LPS-induced BV2 neuroinflammation model, 7-AAD; format: cell-based; conditions: BV2, LPS 1 μg/mL, 19 at 0.5–5 μmol/L
SH-SY5Y cells = experiment: Metabolic activity, MTS assay, SH-SY5Y; format: cell-based; conditions: 24 h, 1–100 μmol/L
[8] = tested on: SH-SY5Y cells treated with 6-OHDA; experiment: Neuroprotection against 6-OHDA toxicity, 7-AAD; format: cell-based; conditions: 100 μmol/L 6-OHDA
[9] = target: T2, purified recombinant hMAO-B (Homo sapiens, UniProt P27338); experiment: hMAO-B steady-state kinetics, direct MMTP assay; format: biochemical; conditions: MMTP substrate
T2 sequence (P27338 1-520): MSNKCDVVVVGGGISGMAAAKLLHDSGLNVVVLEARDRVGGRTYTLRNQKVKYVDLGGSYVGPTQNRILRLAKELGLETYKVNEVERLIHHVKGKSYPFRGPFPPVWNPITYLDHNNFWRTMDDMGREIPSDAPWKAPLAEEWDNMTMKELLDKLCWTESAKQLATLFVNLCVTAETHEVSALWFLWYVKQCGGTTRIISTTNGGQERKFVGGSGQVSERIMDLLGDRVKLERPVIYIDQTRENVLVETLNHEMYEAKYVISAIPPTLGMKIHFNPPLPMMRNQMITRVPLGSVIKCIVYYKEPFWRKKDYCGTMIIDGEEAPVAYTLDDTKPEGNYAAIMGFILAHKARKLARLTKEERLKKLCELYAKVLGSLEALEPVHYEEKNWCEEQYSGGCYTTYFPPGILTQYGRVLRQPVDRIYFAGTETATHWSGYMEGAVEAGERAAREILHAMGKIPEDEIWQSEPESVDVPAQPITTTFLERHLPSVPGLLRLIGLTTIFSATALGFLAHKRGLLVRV

microglial BV2 cells = experiment: Cytotoxicity, 7-AAD flow cytometry, BV2; format: cell-based; conditions: at 10 μmol/L; sentence does not say which of SH-SY5Y/BV2
mice = experiment: Rotarod test; format: in vivo; conditions: 30 mg/kg i.p.; 6, 18, and 24 rpm

T1 sequence (P06276 29-602): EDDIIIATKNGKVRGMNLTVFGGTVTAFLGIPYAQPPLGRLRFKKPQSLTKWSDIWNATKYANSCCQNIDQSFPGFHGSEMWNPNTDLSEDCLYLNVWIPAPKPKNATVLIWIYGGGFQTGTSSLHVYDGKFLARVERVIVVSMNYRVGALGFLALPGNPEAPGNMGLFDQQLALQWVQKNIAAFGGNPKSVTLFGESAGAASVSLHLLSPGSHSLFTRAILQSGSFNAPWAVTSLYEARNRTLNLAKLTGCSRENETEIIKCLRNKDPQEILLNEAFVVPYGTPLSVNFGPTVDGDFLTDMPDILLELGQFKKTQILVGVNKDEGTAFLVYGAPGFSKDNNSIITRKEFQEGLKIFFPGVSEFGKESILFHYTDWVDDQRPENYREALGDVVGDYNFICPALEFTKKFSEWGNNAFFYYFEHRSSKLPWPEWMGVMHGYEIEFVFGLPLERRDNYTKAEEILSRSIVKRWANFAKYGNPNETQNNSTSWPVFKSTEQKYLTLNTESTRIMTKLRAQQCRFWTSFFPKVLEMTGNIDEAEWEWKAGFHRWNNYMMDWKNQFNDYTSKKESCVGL
Aβ1–42, sequence (P05067 672-713): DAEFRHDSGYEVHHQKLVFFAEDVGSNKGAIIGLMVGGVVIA

Compound: [O-]/[N+](=C\c1ccc2cccc(O)c2n1)Cc1ccccc1 [QN 19, (Z)-N-Benzyl-1-(8-hydroxyquinolin-2-yl)methanimine oxide]
- Papp at 4 h, 100 μmol/L (BBB-PAMPA permeability): ≥ 37.2 ×10⁻⁶ cm/s
- chelation of Ca^2+ and Mg^2+ [1]: did not chelate
- complexes with Zn^2+, Cu^2+, Al^3+, Fe^2+ and Fe^3+ [1]: generated corresponding complexes
- concentrations at which metabolic activity is reduced (MTS) (HepG2 cells): higher than 10 μmol/L
- effect on Aβ plaques of chronic treatment started later [2]: inefficient
- IC50 (hBChE [3]): 0.00106 ± 0.00031 µM
- Kii, dissociation constant for binding of the second molecule to hBChE (hBChE [4]): 14.5 nmol/L
- EC50 [5]: 126 ± 0.1 µM
- Inhibition of Aβ1–42 aggregation (Aβ1–42; 10 μmol/L ligand and 1.5 μmol/L Aβ1–42, mean ± SD (n ≥ 3)): n.i. ^e (n.i., no inhibition <20%)
- inhibition of self-induced aggregation of Aβ1–42 (in words) (Aβ1–42; ThT fluorescence assay): inactive
- LPS-induced nitrite concentration (LPS-activated BV2 cells [6]): reduced LPS-induced increase in nitrite concentration
- neuroprotective effects on cell viability, LPS model (LPS-activated BV2 cells [7]): No neuroprotective effects on cell viability
- concentrations at which metabolic activity is reduced (MTS) (SH-SY5Y cells): higher than 10 μmol/L
- cell viability under 6-OHDA co-treatment ([8]; 19 at 0.5 and 1 μmol/L): increased cell viability
- neuroprotective activity under 6-OHDA co-treatment ([8]; 19 at 2.5 and 5 μmol/L): neuroprotective activity was lost
- mode of hMAO-B inhibition (best fit) [9]: competitive inhibition model
- cell viability (7-AAD) (microglial BV2 cells): reduced cell viability to a significant extent
- motor impairments in the rotarod test (mice): did not result in any motor impairments
